Molecular target: T1, Disintegrin and metalloproteinase domain-containing protein 10 (Homo sapiens, UniProt O14672)
T1 sequence (O14672 whole entry): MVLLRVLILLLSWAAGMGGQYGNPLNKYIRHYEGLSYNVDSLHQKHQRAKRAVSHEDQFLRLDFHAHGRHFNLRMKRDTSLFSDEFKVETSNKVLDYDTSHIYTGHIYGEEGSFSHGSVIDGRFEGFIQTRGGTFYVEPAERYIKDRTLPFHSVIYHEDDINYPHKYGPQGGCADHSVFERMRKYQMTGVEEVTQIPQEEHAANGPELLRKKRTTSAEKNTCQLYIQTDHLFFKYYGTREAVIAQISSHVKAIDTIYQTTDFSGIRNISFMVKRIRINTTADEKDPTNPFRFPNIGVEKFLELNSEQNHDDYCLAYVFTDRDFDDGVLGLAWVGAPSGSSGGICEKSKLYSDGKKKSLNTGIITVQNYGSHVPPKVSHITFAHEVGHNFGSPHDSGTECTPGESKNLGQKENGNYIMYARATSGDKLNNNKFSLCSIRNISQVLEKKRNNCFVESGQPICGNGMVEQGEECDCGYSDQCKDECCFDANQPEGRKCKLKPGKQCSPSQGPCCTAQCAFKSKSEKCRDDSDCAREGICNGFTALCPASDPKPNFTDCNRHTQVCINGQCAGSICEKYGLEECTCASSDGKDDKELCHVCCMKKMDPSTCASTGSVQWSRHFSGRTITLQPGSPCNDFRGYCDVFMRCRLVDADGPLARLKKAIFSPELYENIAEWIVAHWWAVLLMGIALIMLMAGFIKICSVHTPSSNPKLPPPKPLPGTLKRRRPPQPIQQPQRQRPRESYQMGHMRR
Assay: potency of ADAM10 substrate cleavage blockers – biochemical, QFRET, dose response (AID 743254)

| Compound | IC50 [µM] |
| --- | --- |
| O=c1[nH]c(=O)n(-c2ccc(Br)cc2)c(O)c1C=NCCN1CCCCC1 | 11.7 |
| O=C1/C(=C/c2cccs2)SC(=S)N1NS(=O)(=O)c1ccccc1 | 69.5 |
| CCCNc1c(F)c(F)c2c(C)c3ccccc3nc2c1F [1,2,4-trifluoro-9-methyl-N-propyl-3-acridinamine] | 69.5 |
| Cn1nc(-c2ccccn2)nc2c(=O)n(C)c(=O)nc1-2 [1,6-dimethyl-3-(2-pyridinyl)pyrimido[5,4-e][1,2,4]triazine-5,7(1H,6H)-dione] | 69.5 |
| N#CCSc1nc2cc(C(=O)N3CCC(C(N)=O)CC3)ccc2c2nc3ccccc3n12 [1-({6-[(cyanomethyl)thio]benzimidazo[1,2-c]quinazolin-3-yl}carbonyl)piperidine-4-carboxamide] | 18.2 |
| N#Cc1c(Cl)nc(N=NCc2ccccc2)c(Cl)c1Cl [2,4,5-tris(chloranyl)-6-[(2E)-2-(phenylmethylidene)hydrazinyl]pyridine-3-carbonitrile] | 69.5 |
| Cc1ccc(OCC(=O)Nc2nnc[nH]2)c(Br)c1 [2-(2-bromanyl-4-methyl-phenoxy)-N-(1H-1,2,4-triazol-5-yl)ethanamide] | 7.45 |
| Cc1cccc(S(=O)(=O)C(C#N)c2nc3ccccc3nc2N2CCOCC2)c1 (configuration not stated) [2-(3-methylphenyl)sulfonyl-2-(3-morpholin-4-ylquinoxalin-2-yl)acetonitrile] | 69.5 |
| Cc1cccc(Oc2nc(-c3ccccn3)nc3ccccc23)c1 [2-Pyridin-2-yl-4-m-tolyloxy-quinazoline] | 69.5 |
| CCOC(=O)Cc1csc(NC(=O)c2sc3nc4cc(C)ccc4cc3c2N)n1 [2-[2-[(3-amino-7-methyl-thieno[2,3-b]quinoline-2-carbonyl)amino]thiazol-4-yl]acetic acid ethyl ester] | 7.72 |
| O=C1c2ccccc2C(=O)N1CCCc1nc(-c2ccncc2)no1 [2-[3-(3-pyridin-4-yl-1,2,4-oxadiazol-5-yl)propyl]isoindole-1,3-dione] | 37.6 |
| Cc1cc(/C=C(/C#N)c2nc3ccccc3[nH]2)c(C)n1-c1ccccc1C(=O)O [2-[3-[(Z)-2-(1H-benzimidazol-2-yl)-2-cyanoethenyl]-2,5-dimethylpyrrol-1-yl]benzoic acid] | 12.5 |
| O=C(CC1CCCCC1)Nc1nc[nH]n1 [2-cyclohexyl-N-(1H-1,2,4-triazol-5-yl)ethanamide] | 69.5 |
| Oc1cc(N(CCc2ccccc2)C(=S)Nc2cc(Cl)ccc2Cl)c(O)n1-c1c(Cl)cccc1Cl [3-[2,5-bis(chloranyl)phenyl]-1-[1-[2,6-bis(chloranyl)phenyl]-2,5-bis(oxidanylidene)pyrrolidin-3-yl]-1-(2-phenylethyl)thiourea] | 69.5 |
| O=C(O)CCc1ccc(-c2ccccc2)n1-c1cccc(C(=O)O)c1 [3-[2-(2-carboxyethyl)-5-phenyl-1-pyrrolyl]benzoic acid] | 9.61 |
| Cc1cc(C=C2C(=O)NC(=O)N(c3ccc(F)cc3)C2=O)c(C)n1-c1cccc(C(=O)O)c1 [3-[3-[(E)-[1-(4-fluorophenyl)-2,4,6-tris(oxidanylidene)-1,3-diazinan-5-ylidene]methyl]-2,5-dimethyl-pyrrol-1-yl]benzoic acid] | 19.4 |
| COc1cc(CN=O)cc(Br)c1OCc1ccc(Cl)cc1 [3-bromo-4-[(4-chlorobenzyl)oxy]-5-methoxybenzaldehyde oxime] | 69.5 |
| C(=CN=Nc1nc2ccccc2s1)Cc1ccccc1 [3-phenylacrylaldehyde 1,3-benzothiazol-2-ylhydrazone] | 69.5 |
| Cc1ccc(NCC(=O)NN=Cc2ccc(C(=O)O)cc2)cc1 [4-[[2-[(4-methylphenyl)amino]ethanoylhydrazinylidene]methyl]benzoic acid] | 15.6 |

| Compound | IC50 [µM] |
| --- | --- |
| O=c1[nH][nH]c2cc(=O)n(-c3ccc(Cl)cc3)nc12 [5-(4-chlorophenyl)-1,2-dihydropyrazolo[4,3-c]pyridazine-3,6-dione] | 10.1 |
| CSc1nsc2nc(=O)c(/C=C3\C=Nc4ccccc43)c(N)n12 [5-amino-6-[(Z)-3-indolylidenemethyl]-3-(methylthio)-[1,2,4]thiadiazolo[4,5-a]pyrimidin-7-one] | 7.43 |
| CN1C(=O)C(=CNCCCCCCCCCCC(=O)O)C(=O)N(C)C1=O [11-[[1,3-dimethyl-2,4,6-tris(oxidanylidene)-1,3-diazinan-5-ylidene]methylamino]undecanoic acid] | 13.1 |
| COc1ccc(N=C(C)c2sc3ccccc3c2O)cc1 [(2Z)-2-[1-(4-methoxyanilino)ethylidene]-1-benzothiophen-3-one] | 24 |
| CC(/C=C1\N=C(SCc2ccccc2Cl)SC1=O)=C\c1ccccc1 [(4Z)-2-[(2-chlorophenyl)methylsulfanyl]-4-[(E)-2-methyl-3-phenyl-prop-2-enylidene]-1,3-thiazol-5-one] | 12 |
| COc1ccc(N2C(=O)NC(=O)C(=Cc3c[nH]c4ccc(Br)cc34)C2=O)c(OC)c1 [(5E)-5-[(5-bromo-1H-indol-3-yl)methylene]-1-(2,4-dimethoxyphenyl)pyrimidine-2,4,6(1H,3H,5H)-trione] | 5.44 |
| O=C1OCCN1C(=O)C1=[N+](c2ccc(Br)cc2)N[C-](c2ccc(F)cc2)[C@H]1c1ccc([N+](=O)[O-])cc1 [MLS000517953] | 18.5 |
| O=C1OCCN1C(=O)C1=[N+](c2ccc(Br)cc2)N[C-](c2cccc(Cl)c2)[C@H]1c1ccc([N+](=O)[O-])cc1 [MLS000517955] | 21.4 |
| Fc1c(F)c(C(F)(F)F)c(F)c(F)c1N=NCc1cccs1 [MLS000533109] | 69.5 |
| O=C1C=CC([N+](=O)[O-])=CC1CN=Nc1ccccn1 (configuration not stated) [MLS000585015] | 27.5 |
| Cc1nnc(=O)[nH]c1N=NCC1C=CC(=O)C([N+](=O)[O-])=C1 (configuration not stated) [MLS000585487] | 69.5 |
| O=C(Cn1cncn1)NN=Cc1c2ccccc2cc2ccccc12 [N-(9-anthracenylmethylideneamino)-2-(1,2,4-triazol-1-yl)acetamide] | 69.5 |
| COc1cc(OC)c(C2C3=C(CC(C)(C)CC3=O)OC(=N)C2C#N)cc1OC (configuration not stated) [SMR000054706] | 8.8 |
| CC(C)C1Nc2ccc(S(N)(=O)=O)cc2C2C=CCC21 (configuration not stated) [SMR000070348] | 13.3 |
| COc1ccc(C=CC(=O)c2c(O)n(CCC3=CCCCC3)c(=O)[nH]c2=O)cc1OC [SMR000221147] | 69.5 |
| COc1ccc(-c2nnc(SCC(=O)Nc3cc(S(=O)(=O)N4CCCCC4)ccc3Cl)n2N)cc1 [SMR000243460] | 7.72 |
| COC(=O)c1ccc(-n2c(C)cc(CN=Nc3nc(C)cc(=O)[nH]3)c2C)cc1 [SMR000364461] | 69.5 |
| COC(=O)CCCC1=CC2=CC(=O)C(C)(OC(=O)C3CCCC3)C(=O)C2=CO1 (configuration not stated) [SMR000452591] | 7.23 |

Reference: BindingDB's records for doi:10.7270/Q2930RT9 (The Scripps Research Institute Molecular Screening Center, 2014)
